Measurements reported in patent publication US6566355B1 (Hoffmann-La Roche Inc., priority 1991, dated 2003).
Structures can show the parent of a compound that is named as a salt. Where two headings read alike, the source gives them in different places.

Columns and labels:
Citrobacter freundii = experiment: MIC in vitro of a 1:4 combination of ceftriaxone with a compound of formula I (test D); format: cell-based; conditions: 1:4 combination of ceftriaxone with the compound
Experimental: D. Determination of the β-lactamase-inhibiting activity by combination of a compound of general formula I with ceftriaxone
The minimum inhibitory concentration in vitro (MIC in μg/ml) of a 1:4 combination of ceftriaxone with a compound of formula I against Citrobacter freundii is measured and compiled in Table 2 hereinafter.

β-lactamase = molecular target: T1, β-lactamase (Citrobacter freundii, UniProt P05193); experiment: biochemical
T1 construct: Various β-lactamases can be isolated from penicillin- or cephalosporin-resistant bacterial strains such as; endogenous in cells; host or cells: Citrobacter freundii 1203 (enzyme purified from the crude cell extract, after ampicillin induction when necessary)
T1 sequence (P05193 21-381): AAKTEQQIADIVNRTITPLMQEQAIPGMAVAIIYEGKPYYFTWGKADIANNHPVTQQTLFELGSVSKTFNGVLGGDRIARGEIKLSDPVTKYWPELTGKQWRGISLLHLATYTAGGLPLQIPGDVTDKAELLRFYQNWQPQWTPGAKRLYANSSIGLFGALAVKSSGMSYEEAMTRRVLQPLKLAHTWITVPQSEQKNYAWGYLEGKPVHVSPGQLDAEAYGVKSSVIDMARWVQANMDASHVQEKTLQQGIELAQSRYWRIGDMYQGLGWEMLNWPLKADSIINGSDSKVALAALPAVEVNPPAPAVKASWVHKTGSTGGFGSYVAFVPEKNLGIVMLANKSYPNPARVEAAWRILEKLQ
Experimental: A. Isolation of the β-lactamases
Various β-lactamases can be isolated from penicillin- or cephalosporin-resistant bacterial strains such as Klebsiella pneumoniae NCTC 418, Proteus vulgaris 1028, Bacillus licheniformis 749/C, Escherichia coli SN01 and Citrobacter freundii 1203. For this purpose, the corresponding strains are cultivated in Tryptic Soy Broth (Difco) and harvested by centrifugation in the last logarithmic growth phase (when necessary 50-100 mg/l of ampicillin are added to the medium towards the end of the log-phase in order to induce the β-lactamase). The thus-obtained bacterial mass is treated with 20 mM Tris-HCl buffer (pH 7.0); the cells are broken open with a French press while cooling. The mixture is centrifuged (20,000 r/min.) for 20-30 minutes and a clear crude extract is obtained.
B. Determination of the β-lactamase activity
The determination of the activity of the isolated β-lactamases can be carried out according to the method of O'Callaghan, C. H. et al. [Antimicr. Ag. Chemother., 1, 283-288 (1972)] using the chromogenic cephalosporin nitrocefin (87/312 from Glaxo). The requisite test batch contains per ml of water: 50 mM phosphate buffer (pH 7.0), 0.1 mM nitrocefin and sufficient enzyme (β-lactamase) to achieve a ΔA/min. of about 0.1. The cleavage of the substrate, which is accompanied by a change in colour, is effected at 37° C. and is followed quantitatively at 482 nm using a spectral photometer.
C. Determination of the β-lactamase-inhibiting activity of the compounds of general formula I
The above-described cleavage of the chromogenic substrate by β-lactamases (test B.) can be inhibited by the addition of compounds of general formula I (inhibitors). […] As a measurement for the affinity of the particular tested inhibitor to the β-lactamase, which is a measurement of the strength of the inhibitor, there serves that concentration which inhibits by 50% (IC 50 in nM) the cleavage of the substrate (nitrocefin) effected under the above test conditions (test B) in the absence of an inhibitor. […] The determination of the IC50 was effected by means of a graph.
(Test organism: Citrobacter freundii)

[1] = IC 50 nM, isolated β-lactamase of Citrobacter freundii, substrate nitrocefin 0.1 mM, 15 minutes pre-incubation with inhibitor, 37° C., pH 7.0

Structure (SMILES) | MIC (Citrobacter freundii) | IC50 (β-lactamase; [1]) | IC50 (β-lactamase)
O=C(NCc1ccccn1)N1CC[C@@H]2[C@H]1C(=O)N2S(=O)(=O)[O-].[Na+] [17(c), (1S,5R)-7-Oxo-2-[(2-pyridylmethyl)carbamoyl]-2,6-diazabicyclo[3.2.0]heptane-6-sulphonic acid sodium salt] | 2 µg/mL | 400 nM | –
O=C(CCC(=O)N1CC[C@@H]2[C@H]1C(=O)N2S(=O)(=O)O)NOCc1ccco1 [Example 19, sodium salt] | 2 µg/mL | 430 nM | –
O=C(CNc1ccccc1)N1CC[C@@H]2[C@H]1C(=O)N2S(=O)(=O)[O-].[Na+] [5(b), (1S,5R)-7-Oxo-2-(N-phenylglycyl)-2,6-diazabicyclo[3.2.0]heptane-6-sulphonic acid sodium salt] | 2 µg/mL | 110 nM | –
CC(=O)NC(C(=O)N1CC[C@@H]2[C@H]1C(=O)N2S(=O)(=O)O)c1ccccc1 (single isomer, unassigned) [5(g), (1S,5R)-2-[D- or L-N-Acetyl-2-phenylglycyl]-7-oxo-2,6-diazabicyclo[3.2.0]-heptane-6-sulphonic acid sodium salt] | 8 µg/mL | – | 150 nM
Cc1nnc(O)c(CNC(=O)N2CC[C@@H]3[C@H]2C(=O)N3S(=O)(=O)O)c1C [17(f), (1S,5R)-2-(3-Hydroxy-5,6-dimethyl-pyridazin-4-yl-methylcarbamoyl)-7-oxo-2,6-diazabicyclo[3.2.0]heptane-6-sulphonic acid sodium salt] | 2 µg/mL | 193 nM | –
Cn1cccc1/C=C/C(=O)N1CC[C@@H]2[C@H]1C(=O)N2S(=O)(=O)[O-].[Na+] [23(c), (1S,5R)-2-[(E)-3-(1-Methyl-pyrrol-2-yl)acryloyl]-7-oxo-2,6-diazabicyclo[3.2.0]heptane-6-sulfonic acid sodium salt] | 8 µg/mL | 420 nM | –
O=C(NNc1ccccc1)N1CC[C@@H]2[C@H]1C(=O)N2S(=O)(=O)O [17(d), (1S,5R)-7-Oxo-2-(2-phenyl-carbazoyl)-2,6-diazabicyclo[3.2.0]heptane-6-sulphonic acid sodium salt] | 2 µg/mL | 197 nM | –
NS(=O)(=O)c1ccc(CNC(=O)N2CC[C@@H]3[C@H]2C(=O)N3S(=O)(=O)[O-])cc1.[Na+] [17(g), (1S,5R)-7-Oxo-2-(4-sulphamoyl-benzylcarbamoyl)-2,6-diazabicyclo[3.2.0]heptane-6-sulphonic acid sodium salt] | 2 µg/mL | 427 nM | –
COc1ccc(NC(=O)N2CC[C@@H]3[C@H]2C(=O)N3S(=O)(=O)[O-])cc1.[Na+] [17(l), (1S,5R)-2-(4-Methoxyphenylcarbamoyl)-7-oxo-2,6-diazabicyclo[3.2.0]heptane-6-sulphonic acid sodium salt] | 4 µg/mL | 437 nM | –
O=C(NC1CCCC1)N1CC[C@@H]2[C@H]1C(=O)N2S(=O)(=O)[O-].[Na+] [17(ac), (1S,5R)-2-Cyclopentylcarbamoyl-7-oxo-2,6-diazabicyclo[3.2.0]heptane-6-sulfonic acid sodium salt] | 1 µg/mL | 70 nM | –
O=C1C[C@H](NC(=O)N2CC[C@@H]3[C@H]2C(=O)N3S(=O)(=O)[O-])C(=O)N1.[Na+] [17(ag), (1S,5R)-7-Oxo-2-[(S)-2,5-dioxo-pyrrolidin-3-ylcarbamoyl]-2,6-diazabicyclo[3.2.0]heptane-6-sulfonic acid sodium salt] | 1 µg/mL | 337 nM | –
Cn1ccnc1SCC(=O)N1CC[C@@H]2[C@H]1C(=O)N2S(=O)(=O)[O-].[Na+] [23(d), (1S,5R)-2-(1-Methyl-imidazol-2-ylsulfanylacetyl)-7-oxo-2,6-diazabicyclo[3.2.0]heptane-6-sulfonic acid sodium salt] | 1 µg/mL | 283 nM | –
Cn1nnnc1SCC(=O)N1CC[C@@H]2[C@H]1C(=O)N2S(=O)(=O)[O-].[Na+] [5(j), (1S,5R)-2-[[(1-Methyl-1H-tetrazol-5-yl)-thio]acetyl]-7-oxo-2,6-diazabicyclo[3.2.0]heptane-6-sulphonic acid sodium salt] | 0.5 µg/mL | 23 nM | –
O=C1OCCN1NC(=O)N1CC[C@@H]2[C@H]1C(=O)N2S(=O)(=O)[O-].[Na+] [17(ad), (1S,5R)-7-Oxo-2-[2-oxo-oxazolidin-3-ylcarbamoyl]-2,6-diazabicyclo[3.2.0]heptane-6-sulfonic acid sodium salt] | 2 µg/mL | 75 nM | –
O=C(NCc1ccccc1)N1CC[C@@H]2[C@H]1C(=O)N2S(=O)(=O)O [Example 3, (1S,5R)-2-(Benzylcarbamoyl)-7-oxo-2,6-diazabicyclo[3.2.0]heptane-6-sulphonic acid sodium salt] | 2 µg/mL | 330 nM | –
N[C@@H](C(=O)N1CC[C@@H]2[C@H]1C(=O)N2S(=O)(=O)O)c1cccc(O)c1 [6(p), (1S,5R)-2-[R-2-(m-Hydroxyphenyl)glycyl]-7-oxo-2,6-diazabicyclo[3.2.0]heptane-6-sulphonic acid] | 2 µg/mL | – | 56 nM
Cn1nnnc1CNC(=O)N1CC[C@@H]2[C@H]1C(=O)N2S(=O)(=O)[O-].[Na+] [17(z), (1S,5R) -2-[1-Methyl-1H-tetrazol-5-ylmethylcarbamoyl]-7-oxo-2,6-diazabicyclo[3.2.0]heptane-6-sulfonic acid sodium salt] | 1 µg/mL | 98 nM | –
O=C(NCc1ccc(O)c(O)c1)N1CC[C@@H]2[C@H]1C(=O)N2S(=O)(=O)[O-].[Na+] [17(e), (1S,5R)-2-(3,4-Dihydroxybenzylcarbamoyl)-7-oxo-2,6-diazabicyclo[3.2.0]heptane-6-sulphonic acid sodium salt] | 2 µg/mL | 250 nM | –
Nc1nc(SCC(=O)N2CC[C@@H]3[C@H]2C(=O)N3S(=O)(=O)[O-])n(C(=O)OCc2ccccc2)n1.[Na+] [23(g), (1S,5R)-2-(5-Amino-2-benzyloxycarbonyl-2H-1,2,4-triazol-3-ylsulfanyl-acetyl)-7-oxo-2,6-diazabicyclo[3.2.0]heptane-6-sulfonic acid sodium salt] | 2 µg/mL | 280 nM | –
CC(C)n1nnc(CC(=O)N2CC[C@@H]3[C@H]2C(=O)N3S(=O)(=O)[O-])n1.[Na+] [5(l), (1S,5R)-2-[(2-Isopropyl-2H-tetrazol-5-yl)-acetyl]-7-oxo-2,6-diazabicyclo[3.2.0]heptane-6-sulphonic acid sodium salt] | 4 µg/mL | 860 nM | –
O=C(Nc1ccccc1)N1CC[C@@H]2[C@H]1C(=O)N2S(=O)(=O)[O-].[Na+] [Example 2, (1S,5R)-7-Oxo-2-(phenylcarbamoyl)-2,6-diazabicyclo[3.2.0]heptane-6-sulphonic acid sodium salt] | 2 µg/mL | 220 nM | –
Cc1nnc(SCC(=O)N2CC[C@@H]3[C@H]2C(=O)N3S(=O)(=O)[O-])s1.[Na+] [5(m), (1S,5R)-2-[[(5-Methyl-1,3,4-thiadiazol-2-yl)thio]acetyl]-7-oxo-2,6-diazabicyclo[3.2.0]heptane-6-sulphonic acid sodium salt] | 0.5 µg/mL | 24 nM | –
Cc1cc(=O)oc2cc(OCC(=O)N3CC[C@@H]4[C@H]3C(=O)N4S(=O)(=O)[O-])ccc12.[Na+] [23(a), (1S,5R)-2-(4-Methyl-2-oxo-2H-benzopyran-7-yloxyacetyl)-7-oxo-2,6-diazabicyclo[3.2.0]heptane-6-sulfonic acid sodium salt] | 16 µg/mL | 97 nM | –
NC(C(=O)N1CC[C@@H]2[C@H]1C(=O)N2S(=O)(=O)O)c1cccs1 (single isomer, unassigned) [5(e), (1S,5R)-2-[(R or S)-α-Amino-(2-thienyl)acetyl]-7-oxo-2,6-diazabicyclo[3.2.0]heptane-6-sulphonic acid] | 2 µg/mL | – | 85 nM
O=C(NCCc1ccccn1)N1CC[C@@H]2[C@H]1C(=O)N2S(=O)(=O)[O-].[Na+] [17(b), (1S,5R)-7-Oxo-2-[2-(pyridin-2-yl)ethylcarbamoyl]-2,6-diazabicyclo[3.2.0]heptane-6-sulphonic acid sodium salt] | 2 µg/mL | 285 nM | –
CCN(CC)CC.Nc1nc(C(N)C(=O)N2CC[C@@H]3[C@H]2C(=O)N3S(=O)(=O)O)cs1 (mixture of isomers) [6(r), (1S,5R)-2-[DL-2-(2-Amino-4-thiazolyl)glycyl] -7-oxo-2,6-diazabicyclo[3.2.0]heptane-6-sulphonic acid triethylamine salt] | 2 µg/mL | – | –
